# PMC7168207, “Dibasic Derivatives of Phenylcarbamic Acid as Prospective Antibacterial Agents Interacting with Cytoplasmic Membrane” (Antibiotics, 2020)
# Values joined by “and” are separate entries in the source; they are usually repeats but may differ in a detail not shown here. Identical values can stand only once. Like-named read-outs stand apart in the source and are kept apart here.
# Experiments:
# [1] = parameters: method as in PMID 30274224; conditions: methanolic solutions, c = 8.0 × 10^−5 M; cited from earlier work
# [2] = parameters: method as in PMID 30274224; conditions: isocratic RP-HPLC, extrapolated lipophilicity index; cited from earlier work
# [3] = tested on: E. faecalis ATCC 29212; test: MIC, broth microdilution; assay type: cell-based, Enterococcus faecalis; conditions: Enterococcus faecalis, ATCC 29212 / ATCC 29213; EF = E. faecalis ATCC 29213
# Procedure: (§1) The modified broth microdilution method was used for in vitro evaluation of minimum inhibitory concentration. A small portion of bacterial colony cultivated overnight onto nutrient agar (Oxoid, Basingstoke, UK) with 5% bovine blood was suspended in sterile phosphate-buffered saline to get cell density 0.5 McFarland. This inoculum was diluted to reach the final concentration of bacterial cells 5 × 10^5 CFU/mL in the wells. […] For plates with staphylococci, cation adjusted Mueller–Hinton (CaMH) broth (Oxoid) was used; enterococci were cultivated in brain heart infusion (BHI, Oxoid). […] A drug-free control and a sterility control were included. Inoculated plates were incubated in aerobic atmosphere at 37 °C overnight. […] After evaluation of MICs, 10 µL of aliquots from the wells were put onto Mueller–Hinton agar. The agar plates were cultivated at 37 °C for 24 h. The minimum bactericidal concentration (MBC) was defined as the lowest concentration of the compound that killed 99.9% of the bacteria compared to the starting inoculum.
# [4] = tested on: vancomycin-resistant enterococci VRE 725B; test: MIC, broth microdilution; assay type: cell-based, Enterococcus faecalis; conditions: Enterococcus; VRE3 = VRE 725B; read-out: MICs
# Procedure: as §1
# [5] = tested on: vancomycin-resistant enterococci VRE 342B; test: MIC, broth microdilution; assay type: cell-based, Enterococcus faecalis; conditions: Enterococcus; VRE1 = VRE 342B; read-out: MICs
# Procedure: as §1
# [6] = tested on: vancomycin-resistant enterococci VRE 368; test: MIC, broth microdilution; assay type: cell-based, Enterococcus faecalis; conditions: Enterococcus; VRE2 = VRE 368; read-out: MICs
# Procedure: as §1
# [7] = tested on: human monocytic leukemia THP-1 cells; test: in vitro antiproliferative assay (WST-1); assay type: cell-based; conditions: THP-1 cells, WST-1, 24 h, read-out: Tox IC50
# Procedure: The preliminary in vitro screening of the antiproliferative effect of the investigated compounds was performed using a Water Soluble Tetrazolium salts-1 (WST-1) assay kit and a human monocytic leukemia THP-1 cell line by means of the method described recently. The principle of the WST-1 assay kit is the […] mitochondrial dehydrogenases by antiproliferative compounds. The activity of this enzyme directly correlates with the number of metabolically active cells in the culture. The antiproliferative effect was evaluated as the IC50 value (the concentration of the compound causing 50% inhibition of cell proliferation).
# Human monocytic leukemia THP-1 cells were used for in vitro antiproliferative assay. Cells were obtained from the European Collection of Cell Cultures (ECACC, Salisbury, UK) and routinely cultured in RPMI (Roswell Park Memorial Institute) 1640 medium supplemented with 10% fetal bovine serum, 2% L-glutamine, 1% penicillin, and streptomycin at 37 °C with 5% CO2. Cells were passaged at approximately one-week intervals. The antiproliferative activity of the compounds was determined using a Water Soluble Tetrazolium Salts-1 (WST-1, 2-(4-iodophenyl)-3-(4-nitrophenyl)-5-(2,4-disulfophenyl)-2H-tetrazolium) assay kit (Roche Diagnostics, Mannheim, Germany) according to the manufacturer’s instructions. The tested compounds were dissolved in DMSO and added in various compound concentrations to the cell suspension in the culture RPMI 1640 medium. The maximum concentration of DMSO in the assays never exceeded 0.1%. Subsequently, the cells were incubated at 37 °C with 5% CO2 for 24 h. For WST-1 assays, cells were seeded into 96-well plates (5 × 10^4 cells/well in 100 μL culture medium) in triplicate in serum-free RPMI 1640 medium, and measurements were taken 24 h after the treatment with the compounds. The median inhibition concentration values, IC50, were deduced through the production of a dose-response curve. All data were evaluated using GraphPad Prism 5.00 software (GraphPad Software, San Diego, CA, USA).
# [8] = tested on: Candida albicans CCM 8261; test: minimum fungistatic concentration, RPMI 1640; assay type: cell-based; conditions: CCM8261, CA = C albicans CCM 8261, 48 h
# Procedure: Fungistatic activity was tested similarly in RPMI (Roswell Park Memorial Institute) 1640 medium (Sigma, Pool, UK). […] A growth control and sterility control were included. The colonies of C. albicans grown overnight on Sabourad dextrose agar were suspended in sterile phosphate-buffered saline (PBS) to get cell density 0.5 McFarland. The inoculum was diluted to get a final concentration of 10^3 CFU/mL in the wells. Plates were inoculated and cultivated at 37 °C for 48 h. The minimum fungistatic concentration was visually evaluated as the lowest concentration of a tested compound, which inhibited 100% of yeast growth. 5-Flucytosin (Sigma, UK) was used as a positive control.
# [9] = tested on: methicillin-resistant S. aureus SA 630; test: MIC, broth microdilution; assay type: cell-based, Staphylococcus aureus; conditions: Staphylococcus aureus; MRSA2 = SA 630; read-out: MICs
# Procedure: as §1
# [10] = tested on: methicillin-resistant S. aureus SA 3202; test: MIC, broth microdilution; assay type: cell-based, Staphylococcus aureus; conditions: Staphylococcus aureus; MRSA3 = SA 3202; read-out: MICs
# Procedure: as §1
# [11] = tested on: methicillin-resistant S. aureus 63718; test: MIC, broth microdilution; assay type: cell-based, Staphylococcus aureus; conditions: Staphylococcus aureus; MRSA1 = S. aureus 63718; read-out: MICs
# Procedure: as §1
# [12] = tested on: S. aureus ATCC 29213; test: MIC, broth microdilution; assay type: cell-based, Staphylococcus aureus; conditions: Staphylococcus aureus, ATCC29213; SA = S. aureus ATCC 29213; read-out: MICs
# Procedure: as §1
# [13] = parameters: method as in PMID 30274224; conditions: cited from earlier work
Structure (SMILES),MIC [3],MIC [4],MIC [5],MIC [6],MIC [8],MIC [9],MIC [10],MIC [11],MIC [12],log ε2 (Ch-T) [1],log kw [2],"IC50 ([7]; Homo sapiens, THP-1, 24 h)","γ (surface tension, relative surface activity) [13]",IC50 [7]
CCCCOc1ccccc1NC(=O)OC(CN(CCC)CCC)CN1CCCCCC1 (stereo not shown) [1i],> 256 µg/mL and > 407 µM,> 256 µg/mL and > 407 µM,> 256 µg/mL and > 407 µM,> 256 µg/mL and > 407 µM,> 128 µg/mL and > 203 µM,> 256 µg/mL and > 407 µM,> 256 µg/mL and > 407 µM,> 256 µg/mL and > 407 µM,> 256 µg/mL and > 407 µM,4.08,4.4679,23.1 ± 0.95 µM,0.06302 N/m,–
CCCCCOc1ccccc1NC(=O)OC(CN(CCC)CCC)CN1CCCCCC1 (stereo not shown) [1j],> 256 µg/mL and > 398 µM,> 256 µg/mL and > 398 µM,> 256 µg/mL and > 398 µM,> 256 µg/mL and > 398 µM,> 128 µg/mL and > 199 µM,> 256 µg/mL and > 398 µM,> 256 µg/mL and > 398 µM,> 256 µg/mL and > 398 µM,> 256 µg/mL and > 398 µM,4.22,4.8466,26.4 ± 1.91 µM,0.06206 N/m,–
CCCCCCOc1ccccc1NC(=O)OC(CN(CCC)CCC)CN1CCCCCC1 (stereo not shown) [1k],> 256 µg/mL and > 390 µM,> 256 µg/mL and > 390 µM,> 256 µg/mL and > 390 µM,> 256 µg/mL and > 390 µM,> 128 µg/mL and > 195 µM,> 256 µg/mL and > 390 µM,> 256 µg/mL and > 390 µM,> 256 µg/mL and > 390 µM,> 256 µg/mL and > 390 µM,4.10,5.2359,31.2 ± 2.24 µM,0.06065 N/m,–

# Continued, in another order:
MIC [3],MIC [4],MIC [5],MIC [6],MIC [8],MIC [9],MIC [10],MIC [11],MIC [12],Structure (SMILES),log ε2 (Ch-T) [1],log kw [2],"IC50 ([7]; Homo sapiens, THP-1, 24 h)","γ (surface tension, relative surface activity) [13]",IC50 [7]
> 256 µg/mL and > 382 µM,> 256 µg/mL and > 382 µM,> 256 µg/mL and > 382 µM,> 256 µg/mL and > 382 µM,> 128 µg/mL and > 191 µM,> 256 µg/mL and > 382 µM,> 256 µg/mL and > 382 µM,> 256 µg/mL and > 382 µM,> 256 µg/mL and > 382 µM,CCCCCCCOc1ccccc1NC(=O)OC(CN(CCC)CCC)CN1CCCCCC1 (stereo not shown) [1l],4.14,5.8966,29.75 ± 0.14 µM,0.05853 N/m,–
32 µg/mL and 61.5 µM,16 µg/mL and 30.7 µM,32 µg/mL and 61.5 µM,64 µg/mL and 122 µM,> 128 µg/mL and > 245 µM,64 µg/mL and 122 µM,64 µg/mL and 122 µM,32 µg/mL and 61.5 µM,128 µg/mL and 245 µM,CCCCOc1cccc(NC(=O)OC(CN(CCC)CCC)CN2CCCCCC2)c1 (stereo not shown) [1m],4.09,4.7099,4.9 ± 0.19 µM,0.06298 N/m,–
16 µg/mL and 29.9 µM,16 µg/mL and 29.9 µM,32 µg/mL and 59.9 µM,64 µg/mL and 119 µM,> 128 µg/mL and > 239 µM,128 µg/mL and 239 µM,256 µg/mL and 478 µM,64 µg/mL and 119 µM,128 µg/mL and 239 µM,CCCCCOc1cccc(NC(=O)OC(CN(CCC)CCC)CN2CCCCCC2)c1 (stereo not shown) [1n],4.18,5.2087,4.99 ± 0.99 µM,0.06154 N/m,–
16 µg/mL and 29.2 µM,8 µg/mL and 14.6 µM,32 µg/mL and 58.3 µM,256 µg/mL and 466 µM,> 128 µg/mL and > 233 µM,> 256 µg/mL and > 466 µM,> 256 µg/mL and > 466 µM,128 µg/mL and 233 µM,> 256 µg/mL and > 466 µM,CCCCCCOc1cccc(NC(=O)OC(CN(CCC)CCC)CN2CCCCCC2)c1 (stereo not shown) [1o],4.01,5.6569,< 6.5 µM,0.05925 N/m,4.71 ± 0.07 µM
8 µg/mL and 14.2 µM,16 µg/mL and 28.4 µM,64 µg/mL and 113 µM,256 µg/mL and 455 µM,> 128 µg/mL and > 227 µM,> 256 µg/mL and > 455 µM,> 256 µg/mL and > 455 µM,256 µg/mL and 455 µM,> 256 µg/mL and > 455 µM,CCCCCCCOc1cccc(NC(=O)OC(CN(CCC)CCC)CN2CCCCCC2)c1 (stereo not shown) [1p],4.20,6.1749,< 6.5 µM,0.05692 N/m,6.32 ± 0.58 µM
